Laboratory results from ChEMBL document CHEMBL5344419, “Synthesis and characterization of the N-succinyl-l,l-diaminopimelic acid desuccinylase (DapE) alternate substrate analog N,N-dimethyl-l,l-SDAP” (Bioorg Med Chem, 2023).
Activity calls are given as the source filed them. The rule behind the calls is not given here.

Columns and labels:
[1] = target: T1, Succinyl-diaminopimelate desuccinylase (Haemophilus influenzae (strain ATCC 51907 / DSM 11121 / KW20 / Rd)) (UniProt P44514); test: Thermal stabilization of Haemophilus influenzae DapE assessed as increase in first melting temperature by SYPRO orange dye based thermal shift assay
T1 sequence (whole entry): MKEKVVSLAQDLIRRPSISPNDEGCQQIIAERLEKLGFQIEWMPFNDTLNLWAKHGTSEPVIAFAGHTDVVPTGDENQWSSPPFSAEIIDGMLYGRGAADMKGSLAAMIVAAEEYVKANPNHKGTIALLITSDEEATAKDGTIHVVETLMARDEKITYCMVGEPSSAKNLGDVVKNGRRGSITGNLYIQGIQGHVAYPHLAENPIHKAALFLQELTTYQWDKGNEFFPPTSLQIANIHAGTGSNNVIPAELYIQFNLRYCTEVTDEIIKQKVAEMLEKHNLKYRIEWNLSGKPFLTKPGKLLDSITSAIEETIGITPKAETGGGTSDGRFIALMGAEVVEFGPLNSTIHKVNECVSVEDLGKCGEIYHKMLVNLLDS

[2] = target: T2, Succinyl-diaminopimelate desuccinylase (Haemophilus influenzae (strain ATCC 51907 / DSM 11121 / KW20 / Rd), UniProt P44514); test: Inhibition of Haemophilus influenzae DapE at 80 degreeC incubated for 15 mins by ninhydrin based assay
T2 sequence (P44514 whole entry): T1 sequence (whole entry)

[3] = target: T2, Succinyl-diaminopimelate desuccinylase; test: Inhibition of Haemophilus influenzae DapE at 100 degreeC incubated for 10 mins by ninhydrin based assay
[4] = target: T2, Succinyl-diaminopimelate desuccinylase; test: Binding affinity to Haemophilus influenzae DapE assessed as dissociation constant
[5] = target: T1, Succinyl-diaminopimelate desuccinylase (Haemophilus influenzae (strain ATCC 51907 / DSM 11121 / KW20 / Rd)); test: Thermal stabilization of Haemophilus influenzae DapE assessed as increase in second melting temperature by SYPRO orange dye based thermal shift assay
[6] = substrate: CN[C@@H](CCC[C@H](NC(=O)CCC(=O)O)C(=O)O)C(=O)O; test: (§1) Substrate activity at Haemophilus influenzae DapE assessed as Kcat/Km incubated for 10 mins by ninhydrin based assay
[7] = substrate: CN(C)[C@@H](CCC[C@H](NC(=O)CCC(=O)O)C(=O)O)C(=O)O; test: as §1
[8] = substrate: CN(C)[C@@H](CCC[C@H](NC(=O)CCC(=O)O)C(=O)O)C(=O)O; test: Substrate activity at Haemophilus influenzae DapE assessed as Kcat/Km at 100 DegreeC incubated for 10 mins by ninhydrin assay
[9] = substrate: CN(C)[C@@H](CCC[C@H](NC(=O)CCC(=O)O)C(=O)O)C(=O)O; test: Substrate activity at Haemophilus influenzae DapE assessed as Kcat/Km at 80 DegreeC incubated for 15 mins by ninhydrin based assay

## CN[C@@H](CCC[C@H](NC(=O)CCC(=O)O)C(=O)O)C(=O)O
[1]
  Activity: Active

## CN(C)[C@@H](CCC[C@H](NC(=O)CCC(=O)O)C(=O)O)C(=O)O
[2]
  IC50: 0.89 µM
[1]
  Activity: Active
[3]
  IC50: 1.5 µM
[4]
  Kd: 1320 µM
[5]
  ΔTm: 3 °C

B1: Succinyl-diaminopimelate desuccinylase (Haemophilus influenzae (strain ATCC 51907 / DSM 11121 / KW20 / Rd)), P44514 (protein)
chain: T1 sequence (whole entry)
[6]
  kcat/Km: 4.4 10^5/M/s
[7]
  kcat/Km: 3.49 10^5/M/s
[8]
  kcat/Km: 4.03 10^5/M/s
[9]
  kcat/Km: 3.49 10^5/M/s
